Assay results as given in article PMC6917776, “Discovery of a chemical probe for PRDM9” (Nature Communications, 2019).
Where “and” joins values, the source holds several entries; their conditions need not be identical. Equal values may be shown once.

System: H3K4me3 at known PRDM9 binding loci and control TSS loci
Assay: ChIP-qPCR of H3K4me3 in PRDM9-transfected HEK293T cells
Assay type: cell-based, human
Conditions: for 2^-dCq / dCq (IP-Input) / 2^-dCq (H3K4me3 IP relative to H3 IP) / Cq / 2^-dCq (H3K4me3 ChIP relative to H3 ChIP) / 2^-dCq (H3K4me3 ChIP-qPCR, IP relative to H3) / <Cq>: Antibody H3K4me3; for 2^-dCq / dCq (IP-Input) / Cq / <Cq>: Figure 7 Replicate 2; for 2^-dCq (H3K4me3 IP relative to H3 IP): ChIP-qPCR Replicate 1; for Cq: ChIP-qPCR single well; for 2^-dCq (H3K4me3 ChIP relative to H3 ChIP): Replicate 1; for 2^-dCq (H3K4me3 ChIP-qPCR, IP relative to H3) / H3K4me3 ChIP-qPCR 2^-dCq (IP-Input): Replicate 2; for H3K4me3 ChIP-qPCR 2^-dCq (IP-Input): H3K4me3 antibody relative to H3; for <Cq>: mean of two wells
Experimental: ChIP-qPCR assays were then conducted on known PRDM9 binding loci[26]. Ectopic expression of PRDM9^WT increased trimethylation of H3K4 (H3K4me3) at previously described PRDM9-specific intragenic and intergenic regions[26] (Fig. 7; Supplementary Fig. 12). […] The observed increases in H3K4me3 levels at intragenic and intergenic regions are therefore due directly to PRDM9 PR domain-dependent methylation activity, rather than through recruitment of other H3K4 methyltransferases or other indirect mechanisms.
ChIP qPCR analyses of H3K4me3 methylation levels of known PRDM9-bound loci and control loci. […] Concentrations used (µM) are indicated below each plot. (a–d) represent reported loci of PRDM9 methylation; (e, f) are transcriptional start sites (TSSs) which are not known loci of PRDM9 methylation. Data are normalized to total H3 and are presented as the mean ± upper and lower limits from two replicates. Representative plots of two independent experiments are shown in this figure. The coordinates and the genomic features associated with the assayed loci are indicated above each plot. Left Tailed Student's t-tests were performed by comparing DMSO (0 µM) treated cells to compound treated cells that have been transfected with the same plasmids. *p-value < 0.05 and **p-value < 0.01. Note that here we show a representative of two independent experiments (mean ± s.d of technical replicates) for our ChIP-qPCR experiments. Data obtained using this technique are inherently noisy due to stochastic differences in gene activity/histone positioning. Data are thus typically presented as representative rather than averaged. Source data are provided as a Source Data file.
HEK293T cells were transfected with 37.5 μg empty pcDNA3.1(+) vector (Invitrogen), or the same vector expressing either wild-type PRDM9 (PRDM9^WT) or a catalytically dead PRDM9 mutant (PRDM9^Mut) and 75 μL of Lipofectamine 2000 (Invitrogen) in 6 mL of Opti-MEM (GIBCO) for 48 h. […] ChIP assays were then performed as previously described. Briefly, cells were fixed in 1% formaldehyde and the fixation reaction was quenched in a final concentration of 0.1 M glycine. Cell pellets were first lysed in LB1 (50 mM HEPES-KOH pH 7.5, 140 mM NaCl, 1 mM EDTA, 10% Glycerol, 0.5% Igepal, 0.25% TritonX), washed once in LB2 Buffer (10 mM Tris-HCl pH 8, 200 mM NaCl, 1 mM EDTA, 0.5 mM EGTA) and finally sonicated in LB3 buffer (10 mM Tris-HCl pH 8, 100 mM NaCl, 1 mM EDTA, 0.5 mM EGTA, 0.1% Sodium deoxycholate, 0.5% N-laurosylsarcosine) using a bioruptor (Diagenode). Thereafter, 50 μg of chromatin was subjected to ChIP using the following antibodies purchased from Abcam: α-H3K4me3 (1:200, ab8580, lot:GR3207339-1) and α-H3 (1:250, ab1791, lot:GR300978-4). After extensive washing in RIPA wash buffer (50 mM HEPES-KOH pH 7.6, 100 mM LiCl, 1 mM EDTA, 1% Igepal, 0.7% Sodium Deoxycholate), DNA was eluted from beads. The eluted DNA was treated with RNase A and Proteinase K and purified using the QIAGEN PCR purification kit. qPCR was then carried out targeting the indicated loci (Supplementary Table 3). Upper and lower limits were defined by |2^−(dCq±s) − 2^−(∆Cq)|, where s = √((Standard deviation of Input Cq)^2 + (Standard deviation of Target Cq)^2). […]
formation. ChIP qPCR analyses of H3K4me3 methylation levels at known PRDM9-bound and control loci. Cells transfected with empty vector (negative control) or vectors overexpressing either wild-type PRDM9 (PRDM9 WT) or catalytically dead PRDM9 (PRDM9 MUT) were […]
Panels a-d represent reported loci of […]
(1 picture or pasted object on this page, not shown here)
PRDM9 methylation; e-f are TSSs which are not known sites of PRDM9 methylation. Data are normalized to total H3 and are presented as the mean ± upper and lower limits from two […]

[1] = Figure 7 E chr12:6643945-6644023 TSS (GAPDH), Plasmid Empty Vector, Drug Conc. 5
[2] = Figure 7 E chr12:6643945-6644023 TSS (GAPDH), Plasmid Empty Vector, Drug Conc. 10
[3] = Figure 7 E chr12:6643945-6644023 TSS (GAPDH), Plasmid PRDM9WT, Drug Conc. 5
[4] = Figure 7 E chr12:6643945-6644023 TSS (GAPDH), Plasmid PRDM9WT, Drug Conc. 10
[5] = Figure 7 F chr19:8510167-8510261 TSS (HNRNPM), Plasmid Empty Vector, Drug Conc. 5
[6] = Figure 7 F chr19:8510167-8510261 TSS (HNRNPM), Plasmid Empty Vector, Drug Conc. 10
[7] = Figure 7 F chr19:8510167-8510261 TSS (HNRNPM), Plasmid PRDM9WT, Drug Conc. 5
[8] = Figure 7 F chr19:8510167-8510261 TSS (HNRNPM), Plasmid PRDM9WT, Drug Conc. 10

## COc1cc(OC)cc(-c2noc(N3CCN(C)C4(CCN(c5ccccc5)CC4)C3)n2)c1 [MRK-740-NC]
Plasmid PRDM9WT, Drug Conc. 5
  2^-dCq: 34.845
  dCq (IP-Input): -5.123
  Cq: 21.4925 and 21.6408
  <Cq>: 21.5667
Plasmid PRDM9WT, Drug Conc. 10
  2^-dCq: 50.1539
  dCq (IP-Input): -5.648
  Cq: 21.2248 and 20.9811
  <Cq>: 21.103
[1]
  2^-dCq (H3K4me3 IP relative to H3 IP): 96.9166
  2^-dCq (H3K4me3 ChIP-qPCR, IP relative to H3): 90.8317
[2]
  2^-dCq (H3K4me3 IP relative to H3 IP): 40.6216
  2^-dCq (H3K4me3 ChIP-qPCR, IP relative to H3): 79.4548
[3]
  2^-dCq (H3K4me3 IP relative to H3 IP): 33.0164
  2^-dCq (H3K4me3 ChIP-qPCR, IP relative to H3): 29.3928
[4]
  2^-dCq (H3K4me3 IP relative to H3 IP): 25.1288
  2^-dCq (H3K4me3 ChIP-qPCR, IP relative to H3): 64.1533
[5]
  2^-dCq (H3K4me3 IP relative to H3 IP): 88.9762
  2^-dCq (H3K4me3 ChIP-qPCR, IP relative to H3): 64.4199
[6]
  2^-dCq (H3K4me3 IP relative to H3 IP): 43.9056
  2^-dCq (H3K4me3 ChIP-qPCR, IP relative to H3): 72.9088
[7]
  2^-dCq (H3K4me3 IP relative to H3 IP): 32.8222
  2^-dCq (H3K4me3 ChIP-qPCR, IP relative to H3): 34.845
[8]
  2^-dCq (H3K4me3 IP relative to H3 IP): 26.0973
  2^-dCq (H3K4me3 ChIP-qPCR, IP relative to H3): 50.1539
Figure 7 A, chr2:128811847-128811944 (Intergenic), Plasmid Empty Vector, Drug Conc. 5
  2^-dCq (H3K4me3 ChIP relative to H3 ChIP): 0.5813
Figure 7 A, chr2:128811847-128811944 (Intergenic), Plasmid Empty Vector, Drug Conc. 10
  2^-dCq (H3K4me3 ChIP relative to H3 ChIP): 0.3956
Figure 7 A, chr2:128811847-128811944 (Intergenic), Plasmid PRDM9WT, Drug Conc. 5
  2^-dCq (H3K4me3 ChIP relative to H3 ChIP): 2.494
Figure 7 A, chr2:128811847-128811944 (Intergenic), Plasmid PRDM9WT, Drug Conc. 10
  2^-dCq (H3K4me3 ChIP relative to H3 ChIP): 2.2717
Figure 7 B, chr8:49932778-49932856 (Intergenic), Plasmid Empty Vector, Drug Conc. 5
  2^-dCq (H3K4me3 ChIP relative to H3 ChIP): 0.3925
Figure 7 B, chr8:49932778-49932856 (Intergenic), Plasmid Empty Vector, Drug Conc. 10
  2^-dCq (H3K4me3 ChIP relative to H3 ChIP): 0.1726
Figure 7 B, chr8:49932778-49932856 (Intergenic), Plasmid PRDM9WT, Drug Conc. 5
  2^-dCq (H3K4me3 ChIP relative to H3 ChIP): 4.749
Figure 7 B, chr8:49932778-49932856 (Intergenic), Plasmid PRDM9WT, Drug Conc. 10
  2^-dCq (H3K4me3 ChIP relative to H3 ChIP): 4.289
Figure 7 C, chr2:40281930-40282015 Intragenic (SLC8A1-AS1), Plasmid Empty Vector, Drug Conc. 5
  2^-dCq (H3K4me3 ChIP relative to H3 ChIP): 0.3263
Figure 7 C, chr2:40281930-40282015 Intragenic (SLC8A1-AS1), Plasmid Empty Vector, Drug Conc. 10
  2^-dCq (H3K4me3 ChIP relative to H3 ChIP): 0.2399
Figure 7 C, chr2:40281930-40282015 Intragenic (SLC8A1-AS1), Plasmid PRDM9WT, Drug Conc. 5
  2^-dCq (H3K4me3 ChIP relative to H3 ChIP): 5.248
Figure 7 C, chr2:40281930-40282015 Intragenic (SLC8A1-AS1), Plasmid PRDM9WT, Drug Conc. 10
  2^-dCq (H3K4me3 ChIP relative to H3 ChIP): 4.126
HEK293T transfected with wild-type PRDM9, 48 h, various concentrations
  H3K4me3 levels at PRDM9-dependent intragenic and intergenic loci (ChIP-qPCR, in words): negligible impact
Figure 7 D chr3:165514798-165514911 Intragenic (BCHE), Plasmid Empty Vector, Drug Conc. 5
  2^-dCq (H3K4me3 ChIP-qPCR, IP relative to H3): 0.55
Figure 7 D chr3:165514798-165514911 Intragenic (BCHE), Plasmid Empty Vector, Drug Conc. 10
  2^-dCq (H3K4me3 ChIP-qPCR, IP relative to H3): 0.9804
Figure 7 D chr3:165514798-165514911 Intragenic (BCHE), Plasmid PRDM9WT, Drug Conc. 5
  2^-dCq (H3K4me3 ChIP-qPCR, IP relative to H3): 6.945
Figure 7 D chr3:165514798-165514911 Intragenic (BCHE), Plasmid PRDM9WT, Drug Conc. 10
  2^-dCq (H3K4me3 ChIP-qPCR, IP relative to H3): 8.326
chr2:40281930-40282015 Intragenic (SLC8A1-AS1), Figure 7 C, Empty Vector, Drug Conc. 5
  H3K4me3 ChIP-qPCR 2^-dCq (IP-Input): 0.5453
chr2:40281930-40282015 Intragenic (SLC8A1-AS1), Figure 7 C, Empty Vector, Drug Conc. 10
  H3K4me3 ChIP-qPCR 2^-dCq (IP-Input): 0.744
chr2:40281930-40282015 Intragenic (SLC8A1-AS1), Figure 7 C, PRDM9WT, Drug Conc. 5
  H3K4me3 ChIP-qPCR 2^-dCq (IP-Input): 5.233
chr2:40281930-40282015 Intragenic (SLC8A1-AS1), Figure 7 C, PRDM9WT, Drug Conc. 10
  H3K4me3 ChIP-qPCR 2^-dCq (IP-Input): 7.127
chr2:128811847-128811944 (Intergenic), Figure 7 A, Empty Vector, Drug Conc. 5
  H3K4me3 ChIP-qPCR 2^-dCq (IP-Input): 1.312
chr2:128811847-128811944 (Intergenic), Figure 7 A, Empty Vector, Drug Conc. 10
  H3K4me3 ChIP-qPCR 2^-dCq (IP-Input): 1.714
chr2:128811847-128811944 (Intergenic), Figure 7 A, PRDM9WT, Drug Conc. 5
  H3K4me3 ChIP-qPCR 2^-dCq (IP-Input): 3.31
chr2:128811847-128811944 (Intergenic), Figure 7 A, PRDM9WT, Drug Conc. 10
  H3K4me3 ChIP-qPCR 2^-dCq (IP-Input): 4.0213
chr8:49932778-49932856 (Intergenic), Figure 7 B, Empty Vector, Drug Conc. 5
  H3K4me3 ChIP-qPCR 2^-dCq (IP-Input): 0.869
chr8:49932778-49932856 (Intergenic), Figure 7 B, Empty Vector, Drug Conc. 10
  H3K4me3 ChIP-qPCR 2^-dCq (IP-Input): 0.9683
chr8:49932778-49932856 (Intergenic), Figure 7 B, PRDM9WT, Drug Conc. 5
  H3K4me3 ChIP-qPCR 2^-dCq (IP-Input): 6.096
chr8:49932778-49932856 (Intergenic), Figure 7 B, PRDM9WT, Drug Conc. 10
  H3K4me3 ChIP-qPCR 2^-dCq (IP-Input): 6.298
